Test results from patent US6541463B1, “Inhibitors of type 5 and type 3 17β-hydroxysteroid dehydrogenase and methods for their use” (Endorecherche, Inc., priority 1998, dated 2003).

Assays:
[1] = target: T1, human type 2 17β-hydroxysteroid dehydrogenase (Homo sapiens, UniProt P37059); assay: Enzymatic assay for type 2 17β-HSD; assay type: biochemical; details: Table 4′, bracketed values, 3 · 10^−8M
T1 construct: expressed in transfected cells; host or cells: 293 cells, transient transfection; microsomal fraction (100 000×g pellet)
T1 sequence (P37059 1-387): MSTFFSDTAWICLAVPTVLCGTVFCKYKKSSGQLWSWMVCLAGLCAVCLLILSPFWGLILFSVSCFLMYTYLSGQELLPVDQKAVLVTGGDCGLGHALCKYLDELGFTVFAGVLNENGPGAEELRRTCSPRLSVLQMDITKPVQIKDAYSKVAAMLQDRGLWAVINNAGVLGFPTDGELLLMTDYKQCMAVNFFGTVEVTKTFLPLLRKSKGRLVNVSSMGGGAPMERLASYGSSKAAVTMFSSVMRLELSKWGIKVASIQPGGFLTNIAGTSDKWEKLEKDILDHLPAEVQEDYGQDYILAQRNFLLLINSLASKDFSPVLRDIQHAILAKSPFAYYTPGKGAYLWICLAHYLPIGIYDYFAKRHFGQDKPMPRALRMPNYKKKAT
Protocol: The manner in which IC50 was determined is described in “Efficacy of Preferred Inhibitors: VI. Enzymatic assay for types 1, 2, and 3 17β-HSD and types 1 and 3 3α-HSD”. […] numbers of IC50 are desirable. Blank means that a determination was not done. […]
Enzyme sources. 293 cells transiently transfected with expression vectors encoding types 1, 2 and 3 17β-HSD (Luu-The et al., J. Steroid Biochem. Molec. Biol., 55: 581-587, 1995), types 1 and 2 5α-reductase (Luu-The et al., J. Invest. Dermatol., 102: 221-226, 1994) and types 1 and 3 3α-HSD (Dufort et al. Biochem. Biophys. Res. Commun. 228: 474-479, 1996), using the calcium phosphate procedure (Kingston et al., In: Current Protocols in Molecular Biology. Edited by E. M. Ausbel, R. Brent, R. E. Kingston, D. D. Moore, J. G. Seidman, J. A. Smith, K. Struhl. John Wiley & Sons, New York, pp. 9.1.1-9.1.9, 1991; Luu-The et al., J. Invest. Dermatol., 102: 221-226, 1994). For assays using cell subfractions, cells were sonicated in 50 mM sodium phosphate buffer (pH 7.4), containing 20% glycerol and 1 mM EDTA and centrifuged at 10 000×g for 30 min before centrifugation for 100 000×g for 1 h to separate the mitochondrial and microsomal fractions, respectively. The cytosol fractions (100 000×g supernatant) was used to determine type 1 activity while the microsomal fraction (pellet at 100 000×g) was used for measurement of types 2 and 3 17β-HSD activities.
Incubation. The enzymatic reaction was carried out at 37° C. in 1 ml of 50 mM sodium phosphate buffer, pH 7.4, containing 20% glycerol, 1 mM EDTA, and 2 mM cofactors (NADPH or AND^+) for 1 h in the presence of 0.1 μM ^14C-labeled substrate: estrone and 4-dione for types 1 and […] 17β-HSD, respectively, testosterone for type 2 17β-HSD as well as types 1 and 2 5α-reductases, DHT for types 1 and 3 3α-HSD activities, and the indicated concentration of inhibitor.
Extraction of metabolites, migration on TLC and quantification were as described above for the assay of type 5 17β-HSD.

[2] = tested on: Shionogi mouse mammary carcinoma cells; assay: Antiandrogenic activity: inhibition of DHT-induced proliferation of Shionogi cells; assay type: cell-based; details: Table 4′, DHT-induced proliferation
Protocol: The manner in which the inhibition is determined is described in “Other Tests; B-Androgenic/Antiandrogenic Activity”. Lower numbers are desirable. ND means that a determination was not done.
(§1) Androgenic/antiandrogenic activity of some preferred compounds has been measured using the Shionogi mouse mammary carcinoma cells.
(§2) Minimal essential culture medium (MEM), non-essential amino acids, and fetal calf serum were purchased from Flow Laboratories. In order to remove endogenous steroids, serum was incubated overnight at 4° C. with 1% activated charcoal (Norit A, Fisher) and 0.1% Dextran T-70 (Pharmacia). A 2-h supplementary adsorption was performed at 25° C. in order to further remove protein-bound steroids. Serum was also inactivated by a 20-min incubation at 56° C.
(§3) 5α-dihydrotestosterone (DHT) was obtained from Steraloids. The antiandrogen hydroxyflutamide (OH-FLU) was kindly supplied by Drs. T. L. Nagabuschan and R. Neri (Schering Corporation, Kenilworth, U.S.A.).
(§4) Shionogi male mice bearing androgen-sensitive mammary tumors were obtained from Drs. Keishi Matsumoto, Osaka, Japan, and Yvonne Lefebvre, Ottawa, Canada. For primary culture, tumors were excised and washed in ice-cold sterile 25 mM Hepes buffer (137 mM NaCl; 5 mM KCl; 0.7 mM Na2HPO4; 10 mM glucose, pH 7.2). After mincing with scissors, the tumor minces were digested for 2 h at 37° C. in Hepes buffer containing 3.8 mg/ml collagenase (Clostridium, Boehringer), 1.5 mg/ml hyaluronidase II (Sigma), and 3% bovine serum albumin fraction V (Schwartz-Mann). Dispersed cells were collected by centrifugation (500×g for 10 min), washed twice by suspension in minimal essential medium (MEM) containing 5% dextran-coated charcoal-treated fetal calf serum (DCC-FCS), 1% non-essential amino acids, 10 IU/ml penicillin, 50 μg/ml streptomycin, and 100 nM dihydrotestosterone (DHT) (Steraloids).
(§5) Cells were plated in the same medium at a density of 75 000 cells/ml in 75 cm^2 flasks under an atmosphere of 5% carbon dioxide in air at 37° C. The medium was changed weekly. The steroids and antisteroids were dissolved in ethanol and kept in stock solutions chosen to yield final ethanol concentrations less than 0.01% in the culture medium.
(§6) Cells were subcultured at near-confidence by gentle digestion in a solution of 0.1% pancreatin (Flow Laboratories) in Hepes buffer containing 3 mM ethylenediaminetetraacetic acid (EDTA) (pH 7.2). Cells were pelleted by centrifugation, resuspended in culture medium, counted in a Coulter counter, and replated as described above. Soft agar cloning was performed as described (Stanley et al., Cell 10: 35-44, 1977) in the presence of 100 nM DHT.
(§7) Cells were plated in 24-well plates at a density of 20 000 cells/well. The indicated increasing concentrations of agents were added to triplicate dishes, and cells were grown for 10-12 days with changes of medium every 3-4 days. Cell number was measured by direct counting in a Coulter counter.
(§8) ED50 values of action of DHT and glucocorticoids were calculated according to a least-square regression as described (Rodbard, Endocrinology 94: 1427-1431, 1974). Statistical significance was calculated according to a multiple-range test (Kramer, Biometrics 12: 307-310,1956).

[3] = tested on: Shionogi mouse mammary carcinoma cells; assay: Androgenic activity: stimulation of proliferation of Shionogi cells; assay type: cell-based; details: Table 4′
Protocol: In column 9, the androgenic activity of preferred type 5 inhibitors expressed as the percentage of stimulation of proliferation of Shionogi cells at concentrations of 10^−7 M (left number) and 10^−6 M (right number) of inhibitor. The manner in which the stimulation is determined is described in “Other Tests; B-Androgenic/Antiandrogenic Activity”. Lower numbers are desirable. ND means that a determination was not done.
as §1, §2, §3, §4, §5, §6, §7, §8

[4] = target: T2, human type 5 17β-hydroxysteroid dehydrogenase (Homo sapiens, UniProt P42330); assay: Inhibition of human type 5 17β-HSD activity in transfected 293 cells; assay type: cell-based; details: Table 4′; read-out: Inhibition Type V 17β-HSD IC50
T2 construct: screen again a human placental λgt11 cDNA to get the full length cDNA clone; expressed in transfected cells; host or cells: human embryonal kidney 293 cells (pCMV / pCMV-neo vector)
T2 sequence (P42330 1-323): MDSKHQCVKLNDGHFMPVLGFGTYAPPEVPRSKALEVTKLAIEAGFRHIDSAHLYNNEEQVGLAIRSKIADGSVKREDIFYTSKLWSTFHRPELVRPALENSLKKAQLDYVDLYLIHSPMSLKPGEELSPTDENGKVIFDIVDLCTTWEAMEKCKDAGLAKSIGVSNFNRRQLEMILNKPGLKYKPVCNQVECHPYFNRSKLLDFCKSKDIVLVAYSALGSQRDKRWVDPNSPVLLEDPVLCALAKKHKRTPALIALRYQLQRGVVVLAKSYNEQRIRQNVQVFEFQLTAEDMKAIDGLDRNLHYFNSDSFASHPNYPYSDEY
Protocol: The manner in which IC50 was determined is described in “Efficacy of the Preferred Inhibitors”. Lower numbers for IC50 are desirable.
Using a oligoprimer pair (5′-GGA-AAT-CGT-GAC-AGG-GAA-TGG-ATT-CCA-AAC-AG-3′, 5′-GGA-ATT-CTT-TAT-TGT-ATT-TCT-GGC-CTA-TGG-AGT-GAG-3′) derived from human aldoketoreductase (Qin et al., J. Steroid Biochem. Molec. Biol. 46: 673-679, 1993) and polymerase chain reaction (PCR), we have amplified from a human placental λgt11 cDNA library (Clontech Laboratories Inc., Palo Alto, Calif.) a cDNA fragment that was used as probe to screen again a human placental λgt11 cDNA to get the full length cDNA clone. The amplified cDNA fragment was purified on agarose gel and labeled with [α^32P]dCTP (Amersham Corp.) using the random primer labeling kit from Pharmacia Inc. PCR amplification reaction medium contained 50 mM KCl, 10 mM Tris-HCl, pH 8.3, 0.1% gelatin, 1 mM MgCl2, 250 μM dNTP, 0.25 μM oligonucleotide primers, and 200 ng of DNA prepared from human placental λgt11 cDNA library. The aqueous phase was overlaid with 75 μL of mineral oil to avoid evaporation. The mixture was heated at 98° C. for 5 min, following the temperature reduction to 72° C., 1 unit of Taq DNA polymerase was added. Using a DNA Thermal Cycler (Perkin-Elmer Corp.), 30 cycles of amplification were carried out using a step program (94° C., 1 min; 60° C., 1 min; and 72° C., 1 min)/cycle.
Approximately 5×10^5 recombinant phage plaques were screened with 1.5×10^6 cpm/ml of the probe. Prehybridization was performed for 4 h at 42° C. in 50% formamide, 5× Denhardt's solution (1× Denhardt's being 0.02% polyvinyl pyrrolidone, 0.02 Ficoll, 0.02 bovine serum albumin), 5×SSPE (1×SSPE being 0.18M NaCl, 10 mM NaH2PO4, pH 7.4, 1 mM EDTA), 0.1% SDS, and 100 μg/ml yeast tRNA. The probe was denatured by heating at 100° C. for 5 min, before being added to the hybridization solution at 42° C. overnight. Filters were then washed twice at room temperature in 2×SSC (1×SSC being […], pH 7.0), 0.1% SDS, and twice in 0.1×SSC, 0.1% SDS at 60° C. Positive recombinant plaques were purified by replating twice and grown in liquid culture. Phage DNA were isolated by centrifugation for 90 min at 105,000×g, and DNA was then isolated by phenol extraction and precipitation with isopropanol (Karen et al. 1987; In: Current Protocols in Molecular Biology (F. M. Ausubel, R. Brent, E. Kingston, D. D. Moore, T. G. Seidman, T. A. Smith and K. Struhl, eds), Wiley & Sons, New York, pp. 1.13.1-1.13.6).
The phage DNA were digested with EcoRI restriction enzymes and the resulting cDNA fragments were inserted into the EcoRI site downstream to the cytomegalovirus (CMV) promoter of the pCMV vector (kindly provided by Dr. Matthew, Cold Spring Harbor, N.Y., USA). Recombinant pCMV plasmids were amplified in Escherichia Coli DH5α competent cells, and were isolated by alkaline lysis procedure (Maniatis et al., In: Molecular cloning: a laboratory manual, Cold Spring Harbor Laboratory., 1982). Sequencing of double-stranded plasmid DNA was performed according to the dideoxy chain termination method (Sanger et al., PNAS 74: 5453-5467, 1977) using a T7 DNA polymerase sequencing kit (Pharmacia LKB Biotechnology). To avoid errors, all sequences were determined by sequencing both strands of the DNA. Oligonucleotide primers were synthesized in our laboratory with a 394 DNA/RNA synthesizer (Applied Biosystem).
The pCMV vector contain 576 nucleotides of the pCMV promoter (followed by 432 bp of small t intron (fragment 4713-4570) and poly adenylation signal (2825-2536)of SV40, followed by 1989 bp of the Pvu II(628)-AatII (2617) fragment from pUC 19 vector (New England Biolabs) that contains an E. Coli origin of replication and an ampicillin resistance gene for propagation in E. Coli. […]

Compound | Inhibition Type 2 17β-HSD Activity [% Inh. at 3 · 10^−8M] [1] | Antiandrogenic Activity Shionogi, DHT E^−6 ([2]; E^−6 (10^−6 M)) | Antiandrogenic Activity Shionogi, DHT E^−7 ([2]; E^−7) | Androgenic Activity Shionogi, Basal E^−6 ([3]; E^−6) | Androgenic Activity Shionogi, Basal E^−7 ([3]; E^−7) | inhibition ([1]; read-out: Inhibition Type 2 17β-HSD Activity [% Inh. at 3 · 10^−8M]) | IC50 [4]
CCC1(CC)CC[C@@]2(CC[C@H]3[C@@H]4CCc5cc(OC)ccc5[C@H]4CC[C@@]32C)OC1=O [EM-1419, 3-Methoxy-1,3,5(10)-estratrien-17(R)-spiro-2′-(5′,5′-diethyl-6′-oxo)tetrahydropyran] | [74] % | −64% | 2% | −29% | 16% |  | 
CC1(C)CCC2(CCC3C4CC(=O)c5cc(O)ccc5C4CCC32C)OC1=O (stereo not shown) [EM-01608-D] |  |  |  |  |  | 58% | 3.6 ± 0.5 nM
